Several values for one entry are separate records, joined by “and”; a condition that tells them apart may be missing. Equal values may be shown once. Read-outs that look alike come from different tables or passages of the source.
Columns and labels:
[1] = system: monomeric serine racemase (m-SR); assay: Expression of monomeric serine racemase protein in PC-12 cells; assay type: cell-based, rat; details: for Concentration of maximum increase in m-SR protein expression: gradual decline at higher concentrations
mTOR pathway = assay: pmTOR, pAkt, pERK, p4E-BP1 and pp70S6K levels in PC-12 cells; assay type: cell-based, rat
α7-nAChR [2] = details: cited from earlier work
α3β4-nAChR = details: cited from earlier work; for IC50: α3β4-nAChR
NMDAR = details: cited from earlier work
[3] = system: mTOR and related proteins; assay: Western blot of phosphorylated mTOR and related proteins in rat brain; details: 20 mg·kg^−1 intravenous; for Increase in phosphorylation of mTOR and its downstream targets: rat pre-frontal cortex, 60-min post-administration, p<0.05
[4] = system: mTOR and related proteins; details: cited from earlier work
α7-nAChR [5] = details: cited from earlier work; remark: listed apart in the source
[6] = system: (S)-nicotine-induced currents in PC-12 cells; details: cited from earlier work
anesthesia = details: cited from earlier work
[7] = Brain tissue concentrations after administration to male Wistar rats
[8] = system: monomeric serine racemase (m-SR); details: PC-12 cells; compound alone; cited from earlier work
[9] = time-dependent, significant in the 20- and 60-min samples
[10] = after (R,S)-ketamine 40 mg·kg^−1 intraperitoneal, 10 min
[11] = after (R,S)-ketamine 40 mg·kg^−1 intraperitoneal, 30 min
[12] = after (R,S)-ketamine 40 mg·kg^−1 intraperitoneal, 60 min
[13] = after (R,S)-ketamine 40 mg·kg^−1 intraperitoneal, 240 min
[14] = after (R,S)-norketamine 20 mg·kg^−1 intravenous, 10 min
[15] = after (R,S)-norketamine 20 mg·kg^−1 intravenous, 20 min
[16] = after (R,S)-norketamine 20 mg·kg^−1 intravenous, 60 min
[17] = after (R,S)-norketamine 20 mg·kg^−1 intravenous, 240 min

Question: What does the source list for `N[C@]1(c2ccccc2Cl)CCC[C@H](O)C1=O`?
Answer: Increase in expression of serine racemase ([1]; 0.05nM): ~ 2 fold; Concentration of maximum increase in m-SR protein expression ([1]; 36 h): 0.05 nM; Levels of phosphorylated mTOR, 4E-BP1, p70S6K, ERK1/2 and Akt and of m-SR protein (mTOR pathway): significant increases; Concentration above which pmTOR increase was markedly reduced (mTOR pathway; 60 min): greater than 1 nM; IC50 (α7-nAChR [2]): < 100 nM; Activity at the α3β4-nAChR (α3β4-nAChR): not active; IC50 (α3β4-nAChR): > 300 µM; Activity at the NMDAR (NMDAR): not active; Relative levels of pERK1/2 and pAkt ([3]; increased in the 20- and 60-min samples): did not reach statistical significance; Increase in p4E-BP1 [3, 9]: ~ 2.0 fold; Increase in pmTOR [3, 9]: ~ 2.0 fold; Increase in pp70S6K [3, 9]: ~ 2.5 fold; Increase in phosphorylation of mTOR and its downstream targets [3]: > 2 fold

Question: Which results are given for `CNC1(c2ccccc2Cl)CCCCC1=O` (racemic) [(R,S)-ketamine]?
Answer: Increase in expression of serine racemase ([1]; 1000nM): ~ 2 fold; Concentrations with significant increase in m-SR expression (ANOVA) ([1]; 36 h): 600 nM and 1000 nM; Concentration of maximum increase in m-SR protein expression ([1]; 36 h): 600 nM; Concentration required to produce the maximum effect on the mTOR pathway and m-SR expression (mTOR pathway): 600 nM; Levels of phosphorylated mTOR, 4E-BP1, p70S6K, ERK1/2 and Akt and of m-SR protein (mTOR pathway): significant increases; Concentration above which the increase lost significance (mTOR pathway; 60 min): greater than 2000 nM; Concentrations eliciting significant increases in protein phosphorylation (mTOR pathway; 60 min): 400 to 600 nM; Increase in the phosphorylated forms of mTOR pathway proteins ([4]; Wistar rats, peaked at 30–60 min post-administration): ~ 1.5 fold; Increase in pERK [4]: 1.5 fold; IC50 (α7-nAChR [5]): 20 µM; IC50 (α3β4-nAChR): 3 µM; IC50 [6]: 5 µM; Anesthetic activity (anesthesia; rat): produce anesthesia; Rat brain tissue conc. of (2S,6S;2R,6R)-HNK [7, 10]: 30 ± 5 µM/g; Rat brain tissue conc. of (R,S)-Ket [7, 10]: 137 ± 6 µM/g; Rat brain tissue conc. of (R,S)-norKet [7, 10]: 21 ± 8 µM/g; Rat brain tissue conc. of (2S,6S;2R,6R)-HNK [7, 11]: 21 ± 8 µM/g; Rat brain tissue conc. of (R,S)-Ket [7, 11]: 52 ± 44 µM/g; Rat brain tissue conc. of (R,S)-norKet [7, 11]: 34 ± 6 µM/g; Rat brain tissue conc. of (2S,6S;2R,6R)-HNK [7, 12]: 25 ± 5 µM/g; Rat brain tissue conc. of (R,S)-Ket [7, 12]: 19 ± 9 µM/g; Rat brain tissue conc. of (R,S)-norKet [7, 12]: 16 ± 4 µM/g; Rat brain tissue conc. of (2S,6S;2R,6R)-HNK [7, 13]: 11 ± 5 µM/g; Rat brain tissue conc. of (R,S)-Ket [7, 13]: 0.6 ± 0.1 µM/g; Rat brain tissue conc. of (R,S)-norKet [7, 13]: 1.3 ± 0.3 µM/g

Question: Which “Increase in expression of serine racemase” value ([1]; 10nM) does the source give for `NC1(c2ccccc2Cl)CCCCC1=O` (racemic) [(R,S)-norketamine] here?
Answer: ~ 2 fold

Question: What about the “Concentration of maximum increase in m-SR protein expression” value ([1]; 36 h) of the same compound?
Answer: 10 nM

Question: What about the “Levels of phosphorylated mTOR, 4E-BP1, p70S6K, ERK1/2 and Akt and of m-SR protein” value (mTOR pathway) of the same compound?
Answer: significant increases

Question: And the “Concentration above which the increase lost significance” value (mTOR pathway; 60 min)?
Answer: greater than 250 nM

Question: What about the IC50 (α3β4-nAChR) of the same compound?
Answer: 9 µM

Question: What about the Anesthetic activity (anesthesia; rat) of the same compound?
Answer: produce anesthesia

Question: What about the “Rat brain tissue conc. of (2S,6S;2R,6R)-HNK” value [7, 14] of the same compound?
Answer: 16 ± 3 µM/g

Question: And the “Rat brain tissue conc. of (R,S)-norKet” value [7, 14]?
Answer: 88 ± 8 µM/g

Question: And the “Rat brain tissue conc. of (2S,6S;2R,6R)-HNK” value [7, 15]?
Answer: 16 ± 3 µM/g

Question: And the “Rat brain tissue conc. of (R,S)-norKet” value [7, 15]?
Answer: 51 ± 4 µM/g

Question: What about the “Rat brain tissue conc. of (2S,6S;2R,6R)-HNK” value [7, 16] of the same compound?
Answer: 8.9 ± 0.7 µM/g

Question: And the “Rat brain tissue conc. of (R,S)-norKet” value [7, 16]?
Answer: 20 ± 7 µM/g

Question: And the “Rat brain tissue conc. of (2S,6S;2R,6R)-HNK” value [7, 17]?
Answer: 2.1 ± 0.4 µM/g

Question: And the “Rat brain tissue conc. of (R,S)-norKet” value [7, 17]?
Answer: 1.0 ± 0.1 µM/g

Question: And the “Relative pAkt levels” value [3]?
Answer: not impacted

Question: And the “Levels of phosphorylated forms of mTOR, pp70S6K and p4E-BP1” value ([3]; 20- and 60-min samples)?
Answer: significant increases

Question: And the “Increase in pmTOR levels” value ([3]; 20-min sample)?
Answer: 15 fold

Question: What about the “Increase in pmTOR levels” value ([3]; 60-min sample) of the same compound?
Answer: 25 fold

Question: What about the “Increase in pERK level” value ([3]; significant) of the same compound?
Answer: ~ 6 fold

Question: What about the “Increase in phosphorylation of mTOR and its downstream targets” value [3] of the same compound?
Answer: > 25 fold

Question: With `N[C@@]1(c2ccccc2Cl)CCC[C@@H](O)C1=O` [(2R,6R)-hydroxynorketamine] as the compound, how does the IC50 (α7-nAChR [2]) read?
Answer: < 100 nM

Question: And the “Activity at the α3β4-nAChR” value (α3β4-nAChR)?
Answer: not active

Question: And the “Activity at the NMDAR” value (NMDAR)?
Answer: not active

Question: For `N[C@@]1(c2ccccc2Cl)CCC[C@@H](O)C1=O` [(2S,6S;2R,6R)-hydroxynorketamine], which Anesthetic activity (anesthesia; rat) is on record?
Answer: no anesthetic effect

Question: And the Anesthetic activity (anesthesia; rat; ref 9;2R,6R)-Hydroxynorketamine)?
Answer: lacks anesthetic activity

Question: Which “Effect on the phosphorylation of pmTOR, p4E-BP1, pp70S6K, pERK1/2 and pAkt” value (mTOR pathway; (S)-nicotine alone, 2 μM, 1 h) does the source give for `CN1CCC[C@H]1c1cccnc1` [(S)-nicotine] here?
Answer: no effect

Question: What about the “Effect on expression of m-SR” value [8] of the same compound?
Answer: no effect

Question: With `CCN1C[C@]2(COC(=O)c3ccccc3N3C(=O)C[C@H](C)C3=O)CC[C@H](OC)[C@@]34[C@@H]5C[C@H]6[C@H](OC)[C@@H]5[C@](O)(C[C@@H]6OC)[C@@](O)([C@@H](OC)[C@H]23)[C@@H]14` [methyllycaconitine] as the compound, how does the “Levels of phosphorylated mTOR, 4E-BP1, p70S6K, ERK1/2 and Akt and of m-SR protein” value (mTOR pathway) read?
Answer: significant increases

Question: What about the “Effect on expression of m-SR” value [8] of the same compound?
Answer: significantly increases
